Data on five compounds can be found in patent US4877893A, “Process for the preparation of 2-(O-alkyl)-2-thio-1,3,2-oxathiophospholanes” (priority 1987, dated 1989).

Holding throughout (assay): Fungicidal effect on infected agar nutrient media, colony diameter
Holding throughout (format): cell-based

The test system of test [1] is Sclerotinia sclerotinia. As to conditions: 3rd day after treatment, untreated control 41.7. The protocol:
(§1) Agar nutrient media (Diameter 70 MM, thickness 10 mm) infected by Sclerotonia sclerotinia suspension are treated with 20 EC formulations prepared according to Example 27 and comprising 1, 10, 100 and 1000 ppm, respectively of the active ingredient of the Formula I. The fungicidal effect of the compositions is evaluated on the 3rd day after treatment by measuring the diameter of the Fungi colonies.

The test system of test [2] is Penicillium cyclopium. As to conditions: 7th day after treatment, untreated 26.5. The protocol: as §1
The series of measureents described in Example 35 is carried out except that the agar nutrient media are infected by a Penicillium cyclopium Fungi strain and the test is evaluated on the 7th day after treatment.

In test [3] the test system is Alternaria tenuis. As to conditions: 5th day after treatment, untreated control 36.8. The protocol: as §1
The series of measurements according to Example 35 is carried out except that the agar nutrient media are infected by Alternaria Tenius and evaluation is accomplished on the 5th day after treatment.

For the compound `CC(I)COP1(=S)OCCS1` (stereo not drawn) [Compound 15], the “Diameter of colony (mm)” value in test [1] (1 ppm) is reported as 34.3 mm; in test [1] (10 ppm) it was 30.3 mm; in test [1] (100 ppm) it was 1.4 mm; in test [1] (1000 ppm), 0 mm; in test [2] (1 ppm), 19.1 mm; in test [2] (10 ppm) it was 15.5 mm. The “Diameter of colony (mm)” value is reported as 5.8 mm in test [2] (100 ppm); 0 mm in test [2] (1000 ppm); 35.9 mm in test [3] (1 ppm); 21.1 mm in test [3] (10 ppm); 5.5 mm in test [3] (100 ppm); 0 mm in test [3] (1000 ppm).

As to `CC1OP(=S)(OCCCl)SC1C` (stereo not drawn) [Compound 16, 2-(0-2'-chloroethyl)-2-thio-4,5-dimethyl-1,3,2-oxathiophospholane], the “Diameter of colony (mm)” value in test [1] (1 ppm) came to 39.4 mm; in test [1] (10 ppm), 27.6 mm; in test [1] (100 ppm), 1.7 mm; in test [1] (1000 ppm), 0 mm; in test [2] (1 ppm), 23.2 mm; in test [2] (10 ppm) it was 18.1 mm. Moreover, the “Diameter of colony (mm)” value in test [2] (100 ppm) came to 6.6 mm; in test [2] (1000 ppm) it was 0 mm; in test [3] (1 ppm), 34.4 mm; in test [3] (10 ppm) it was 22.0 mm; in test [3] (100 ppm), 6.3 mm; in test [3] (1000 ppm), 0 mm.

Turning to `CC1OP(=S)(OCCBr)SC1C` (stereo not drawn) [Compound 17], the “Diameter of colony (mm)” value in test [1] (1 ppm) turned out to be 40.1 mm; in test [1] (10 ppm), 30.2 mm; in test [1] (100 ppm), 1.0 mm; in test [1] (1000 ppm), 0 mm; in test [2] (1 ppm) it was 24.9 mm; in test [2] (10 ppm) it was 14.2 mm. Further, the “Diameter of colony (mm)” value in test [2] (100 ppm) worked out at 8.9 mm; in test [2] (1000 ppm) it was 0 mm; in test [3] (1 ppm), 33.2 mm; in test [3] (10 ppm) it was 23.9 mm; in test [3] (100 ppm) it was 5.6 mm; in test [3] (1000 ppm) it was 0 mm.

`CC1OP(=S)(OCCI)SC1C` (stereo not drawn) [Compound 18]: the “Diameter of colony (mm)” value in test [1] (1 ppm) was 38.2 mm; in test [1] (10 ppm), 28.0 mm; in test [1] (100 ppm) it was 1.5 mm; in test [1] (1000 ppm), 0 mm; in test [2] (1 ppm), 25.2 mm; in test [2] (10 ppm), 14.2 mm. Further, the “Diameter of colony (mm)” value in test [2] (100 ppm) was found to be 6.3 mm; in test [2] (1000 ppm) it was 0 mm; in test [3] (1 ppm), 35.8 mm; in test [3] (10 ppm), 22.8 mm; in test [3] (100 ppm) it was 5.3 mm; in test [3] (1000 ppm) it was 0 mm.

For the compound `CC(CCl)OP1(=S)OC(C)CS1` (stereo not drawn) [Compound 19, 2-(0-1'-methyl-2'-chloroethyl)-2-thio-5-methyl-1,3,2-oxathiophospholane], the “Diameter of colony (mm)” value in test [1] (1 ppm) is recorded as 36.5 mm; in test [1] (10 ppm), 27.4 mm; in test [1] (100 ppm) it was 3.9 mm; in test [1] (1000 ppm), 0 mm; in test [2] (1 ppm), 21.5 mm; in test [2] (10 ppm) it was 15.6 mm. Also, the “Diameter of colony (mm)” value in test [2] (100 ppm) is 5.5 mm; in test [2] (1000 ppm), 0 mm; in test [3] (1 ppm) it was 32.3 mm; in test [3] (10 ppm), 21.7 mm; in test [3] (100 ppm), 4.3 mm; in test [3] (1000 ppm), 0 mm.
